US8992982B2, “Formulation of indomethacin” (Iceutica Pty Ltd., priority 2009, dated 2015)

Assays:
[1] = test system: pain after surgical removal of impacted third molars; test: Phase 2 dental pain study: VAS pain intensity (VAS score, VASPID, VASSPID); format: in vivo, human; parameters: VASPID, Median / VASPID, Mean / VAS pain intensity score, Median / VASSPID-8, Median: scale not given here
Method: On Day 1, eligible subjects underwent extraction of 2 or more third molars, at least 1 of which had to be a fully or partially bone-impacted mandibular molar. If only 2 molars were removed, then they had to be ipsilateral.
(§1) Subjects assessed their baseline pain intensity (VAS) before receiving study drug (predose, Time 0) and their pain intensity (VAS) and pain relief (5-point categorical scale) at 15, 30, and 45 minutes and 1, 1.5, 2, 3, 4, 5, 6, 7, and 8 hours after Time 0 and immediately before the first dose of rescue medication. The 2-stopwatch method was used to record the time to perceptible and time to meaningful pain relief, respectively. Acetaminophen (1000 mg) was permitted as the initial rescue medication. Subjects were encouraged to wait at least 60 minutes after receiving study drug before taking rescue medication. […] Other restrictions included the following: no alcohol use from 24 hours before surgery until discharge on Day 1; nothing by mouth (NPO) from midnight before surgery until 1 hour after surgery; clear liquids only from 1 hour after surgery until 1 hour after dosing; and advancement of diet 1 hour after dosing according to standard practice.
(§2) The secondary efficacy endpoints were as follows: • TOTPAR over 0 to 4 hours (TOTPAR-4) after Time 0 • Visual Analogue Scale (VAS) pain intensity difference (VASPID) at each scheduled time point after Time 0 • Time to onset of analgesia (measured as time to perceptible pain relief confirmed by meaningful pain relief) • VAS pain intensity score at each scheduled time point • VAS summed pain intensity difference (VASSPID) over 0 to 4 hours (VASSPID-4) and over 0 to 8 hours (VASSPID-8) after Time 0 • Pain relief score at each scheduled time point after Time 0 • Peak pain relief • Time to peak pain relief • Time to first perceptible pain relief • Time to meaningful pain relief • Proportion of subjects using rescue medication • Time to first use of rescue medication (duration of analgesia) • Patient's global evaluation of study drug Safety:
For continuous secondary endpoints such as pain intensity score, VASPID at each scheduled time point, peak pain intensity, TOTPAR-4, VASSPID-4, and VASSPID-8, descriptive statistics (e.g., mean, standard error, median, minimum, and maximum) were provided for each treatment regimen. Nominal P values from 2-sample tests comparing the placebo group with other treatment groups were provided, but no formal statistical inferences were drawn on the basis of these tests.
For pain intensity, missing observations were imputed using a baseline-observation-carried-forward (BOCF) approach for subjects who withdrew from the study due to lack of efficacy or an AE/intolerance to study drug. The BOCF imputation was applied in place of all scheduled assessments after the time of early termination due to lack of efficacy or an AE/intolerance to study drug using the baseline observation taken before Time 0.
For subjects who withdrew from the study for reasons other than lack of efficacy or an AE/intolerance to study drug, missing observations for pain intensity and pain relief were imputed using a last-observation-carried-forward (LOCF) approach. The LOCF imputation was applied in place of all scheduled assessments after the time of early termination for reasons other than lack of efficacy or an AE/intolerance to study drug.
For subjects who took any dose of rescue medication, subsequent measures after the first dose of rescue mediation were disregarded. Instead, all scheduled assessments after the first dose of rescue medication were imputed using BOCF and the baseline observation taken before Time 0. (Baseline value for pain relief was 0.)

[2] = test system: pain after surgical removal of impacted third molars; test: Phase 2 dental pain study: use of rescue medication (proportion of subjects, time to first use); format: in vivo, human; conditions: 400 mg
Method: as §1, §2
For each time-to-event endpoint, the Kaplan-Meier method was used to evaluate the treatment effect. Time to onset of analgesia (measured as time to perceptible pain relief confirmed by meaningful pain relief) was based on data collected using the 2-stopwatch method. […] A summary table provided the number of subjects analyzed, the number of subjects censored, estimates for the quartiles, and 95% confidence intervals (CIs) for the estimated median. P values from log-rank tests were also used to examine treatment effect. Cox proportional hazard models were used to explore potential covariates such as sex, baseline pain intensity, and surgical trauma rating, if appropriate.
For the proportion of subjects using rescue medication, a logistic regression model that adjusted for baseline pain intensity was used to evaluate the treatment effect. Subgroup analysis by sex was performed if sex was confirmed to be a statistically significant covariate for TOTPAR-8. Baseline values were defined as the last measurements taken before dosing with a study drug.

[3] = 15 minutes after Time 0, ITT, 100-mm VAS

For `Cc1ccc(-c2cc(C(F)(F)F)nn2-c2ccc(S(N)(=O)=O)cc2)cc1` [Celecoxib], which “VASSPID-4, Mean (SD)” value ([1]; 0 to 4 hours after Time 0, ITT) is on record?
Its value is 127.971 (99.1934).

And the “VASSPID-4, Median” value ([1]; 0 to 4 hours after Time 0, ITT)?
The value was 140.250.

What about the “VASSPID-8, Mean (SD)” value ([1]; 0 to 8 hours after Time 0, ITT) of the same compound?
The value was 284.265 (229.4447).

What about the “VASSPID-8, Median” value ([1]; 0 to 8 hours after Time 0, ITT) of the same compound?
Its value is 346.500.

And the “VAS pain intensity score, Median” value ([1]; 15 minutes after Time 0, ITT)?
The value was 71.00.

What about the “VASPID, Median” value ([1]; 15 minutes after Time 0, ITT) of the same compound?
The value was 1.00.

What about the “VAS pain intensity score, Mean” value [1, 3] of the same compound?
The value was 70.55.

What about the “VASPID, Mean” value [1, 3] of the same compound?
The value was 3.35.

What about the “VAS pain intensity score, Mean” value ([1]; 30 minutes after Time 0, ITT) of the same compound?
Its value is 67.25.

And the “VAS pain intensity score, Median” value ([1]; 30 minutes after Time 0, ITT)?
The value was 66.00.

What about the “VASPID, Mean” value ([1]; 30 minutes after Time 0, ITT) of the same compound?
The value was 6.65.

And the “VASPID, Median” value ([1]; 30 minutes after Time 0, ITT)?
Its value is 3.00.

What about the “VAS pain intensity score, Mean” value ([1]; 45 minutes after Time 0, ITT) of the same compound?
Its value is 57.47.

What about the “VAS pain intensity score, Median” value ([1]; 45 minutes after Time 0, ITT) of the same compound?
The value was 61.00.

And the “VASPID, Mean” value ([1]; 45 minutes after Time 0, ITT)?
The value was 16.43.

What about the “VASPID, Median” value ([1]; 45 minutes after Time 0, ITT) of the same compound?
The value was 10.00.

And the “VAS pain intensity score, Mean” value ([1]; 1 hour after Time 0, ITT)?
Its value is 49.08.

And the “VAS pain intensity score, Median” value ([1]; 1 hour after Time 0, ITT)?
Its value is 50.00.

And the “VASPID, Mean” value ([1]; 1 hour after Time 0, ITT)?
Its value is 24.82.

And the “VASPID, Median” value ([1]; 1 hour after Time 0, ITT)?
The value was 17.00.

What about the “VAS pain intensity score, Mean” value ([1]; 2 hours after Time 0, ITT) of the same compound?
The value was 36.65.

What about the “VAS pain intensity score, Median” value ([1]; 2 hours after Time 0, ITT) of the same compound?
Its value is 36.00.

And the “VASPID, Mean” value ([1]; 2 hours after Time 0, ITT)?
The value was 37.25.

What about the “VASPID, Median” value ([1]; 2 hours after Time 0, ITT) of the same compound?
The value was 32.00.

What about the “VAS pain intensity score, Mean” value ([1]; 3 hours after Time 0, ITT) of the same compound?
Its value is 32.29.

What about the “VAS pain intensity score, Median” value ([1]; 3 hours after Time 0, ITT) of the same compound?
The value was 28.00.

And the “VASPID, Mean” value ([1]; 3 hours after Time 0, ITT)?
The value was 41.61.

What about the “VASPID, Median” value ([1]; 3 hours after Time 0, ITT) of the same compound?
Its value is 50.00.

And the “VAS pain intensity score, Mean” value ([1]; 4 hours after Time 0, ITT)?
The value was 33.94.

What about the “VAS pain intensity score, Median” value ([1]; 4 hours after Time 0, ITT) of the same compound?
The value was 25.00.

And the “VASPID, Mean” value ([1]; 4 hours after Time 0, ITT)?
The value was 39.96.

What about the “VASPID, Median” value ([1]; 4 hours after Time 0, ITT) of the same compound?
The value was 46.00.

And the “VAS pain intensity score, Mean” value ([1]; 5 hours after Time 0, ITT)?
The value was 33.69.

What about the “VAS pain intensity score, Median” value ([1]; 5 hours after Time 0, ITT) of the same compound?
The value was 22.00.

And the “VASPID, Mean” value ([1]; 5 hours after Time 0, ITT)?
The value was 40.22.

And the “VASPID, Median” value ([1]; 5 hours after Time 0, ITT)?
Its value is 50.00.

And the “VAS pain intensity score, Mean” value ([1]; 6 hours after Time 0, ITT)?
The value was 35.06.

What about the “VAS pain intensity score, Median” value ([1]; 6 hours after Time 0, ITT) of the same compound?
Its value is 20.00.

And the “VASPID, Mean” value ([1]; 6 hours after Time 0, ITT)?
The value was 38.84.

And the “VASPID, Median” value ([1]; 6 hours after Time 0, ITT)?
Its value is 50.00.

What about the “VAS pain intensity score, Mean” value ([1]; 7 hours after Time 0, ITT) of the same compound?
Its value is 35.55.

And the “VAS pain intensity score, Median” value ([1]; 7 hours after Time 0, ITT)?
Its value is 21.00.

And the “VASPID, Mean” value ([1]; 7 hours after Time 0, ITT)?
Its value is 38.35.

And the “VASPID, Median” value ([1]; 7 hours after Time 0, ITT)?
Its value is 44.00.

What about the “VAS pain intensity score, Mean” value ([1]; 8 hours after Time 0, ITT) of the same compound?
The value was 35.02.

What about the “VAS pain intensity score, Median” value ([1]; 8 hours after Time 0, ITT) of the same compound?
Its value is 22.0.

What about the “VASPID, Mean” value ([1]; 8 hours after Time 0, ITT) of the same compound?
The value was 38.88.

And the “VASPID, Median” value ([1]; 8 hours after Time 0, ITT)?
Its value is 49.00.

And the “VAS pain intensity score, Mean” value ([1]; […] after Time 0, ITT)?
The value was 43.98.

And the “VAS pain intensity score, Median” value ([1]; […] after Time 0, ITT)?
Its value is 48.00.

And the “VASPID, Mean” value ([1]; […] after Time 0, ITT)?
Its value is 29.92.

What about the “VASPID, Median” value ([1]; […] after Time 0, ITT) of the same compound?
Its value is 26.00.

And the “Time point from which mean VASPID was statistically significantly greater and mean VAS pain intensity less than placebo” value ([1]; onward after Time 0)?
Its value is at least 30 min.

What about the “Hazard ratio vs placebo, Cox proportional hazards model (time to first use of rescue medication)” value [2] of the same compound?
The value was 0.2.

And the “Time to first use of rescue medication: subjects analyzed, %” value [2]?
The value was “(41.2) %”.

What about the “Time to first use of rescue medication: subjects censored, %” value [2] of the same compound?
The value was “(58.8) %”.

What about the “Time to first use of rescue medication, Mean” value ([2]; Kaplan-Meier estimate) of the same compound?
The value was 4.7 h.

What about the “Time to first use of rescue medication, Q25” value ([2]; Kaplan-Meier estimate) of the same compound?
Its value is 3.30 h.
